Experimental data: US20170327455A1, “Omefibrates for Treating Dyslipidemia and Cardiovascular Disease” (Jiva Pharma, Inc., priority 2014, published 2017)
“Also recorded” adds a separate entry of the source.

Key:
[1] = biological target: T1, PPARα (Homo sapiens, UniProt Q07869); assay: PPARα agonist assay: GAL4-PPAR ligand-binding domain luciferase reporter in live cells; format: cell-based; conditions: FIG. 1; for activation of PPARα transcriptional activity (normalized luciferase activity): GAL4-regulated luciferase reporter, live cells
T1 construct: expressed in transfected cells
T1 sequence (Q07869 239-466 limits assumed): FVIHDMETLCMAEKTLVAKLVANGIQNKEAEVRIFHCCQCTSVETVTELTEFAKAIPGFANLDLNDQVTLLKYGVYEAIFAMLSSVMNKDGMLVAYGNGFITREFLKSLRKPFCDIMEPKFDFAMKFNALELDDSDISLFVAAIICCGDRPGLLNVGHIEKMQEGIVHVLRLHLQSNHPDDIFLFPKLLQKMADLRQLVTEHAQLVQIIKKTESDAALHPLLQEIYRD
Protocol: The activity of JIVA-0018, JIVA-0019 and JIVA-0020 was determined in a PPARα-dependent transcription assay. This assay was carried out in live cells treated with these above compounds, and provides a direct measurement of a compound's ability to activate PPARα. This PPARα activity assay is a standard nuclear receptor ligand activity assay that utilizes the ligand-binding domain of the PPAR receptor fused to a heterologous GAL4 DNA binding domain. The transcriptional read-out is from a GAL4-regulated luciferase reporter. In this assay, compounds that activate the receptor cause an increase in luciferase activity measured in a luminometer.

[2] = biological target: T2, PPARδ (Homo sapiens, UniProt Q03181); assay: PPARδ Agonist Assay (luciferase reporter); format: cell-based; conditions: FIG. 2
T2 construct: expressed in transfected cells
T2 sequence (Q03181 211-439 limits assumed): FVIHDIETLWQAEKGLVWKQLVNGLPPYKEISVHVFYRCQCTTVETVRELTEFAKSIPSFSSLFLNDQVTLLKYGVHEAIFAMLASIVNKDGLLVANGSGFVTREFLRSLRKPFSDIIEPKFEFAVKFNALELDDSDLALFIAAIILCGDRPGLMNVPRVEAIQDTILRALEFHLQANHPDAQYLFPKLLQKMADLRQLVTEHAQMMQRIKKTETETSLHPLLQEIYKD

Row | activity on PPARδ (normalized luciferase activity) [2] | Compound | activation of PPARα transcriptional activity (normalized luciferase activity) [1] | EC50 ([1]; estimated from the data, read-out: EC50 for activation of PPARα)
1 |  | DHA Fibrate [JIVA-0020] | neither the EPA-fibrate, JIVA-0018 nor the DHA-fibrate, JIVA-0020 stimulated PPARα activity | > 20 µM
2 | at the base line | CC/C=C\C/C=C\C/C=C\C/C=C\C/C=C\CCCCC(C)(C)C(=O)O [JIVA-0018, EPA Fibrate or EPA-Fibric Acid] | neither the EPA-fibrate, JIVA-0018 nor the DHA-fibrate, JIVA-0020 stimulated PPARα activity; also recorded: at the base line | 
3 | at the base line | CC/C=C\C/C=C\C/C=C\CCCCCCCCC(C)(C)C(=O)O [JIVA-0019, ALA Fibrate] | strongly activated PPARα; also recorded: potent and selective activator of PPARα | 
